Laboratory results reported in patent US20250197447A1, “PEPTIDE HAVING ANTI-AGING ACTIVITY, AND USE THEREOF” (CAREGEN CO., LTD., priority 2021, published 2025).

How the values were obtained:
fibronectin = experiment: RT-PCR of fibronectin mRNA decreased by UV irradiation in fibroblasts; type: cell-based, mouse; settings: NIH3T3 cells; peptide 10, 50, 100 μM before 6 J/cm^2 UVA; 6 hours culture; FIGS. 2A, 2C
Method: (§1) Expression of collagen, fibronectin, and elastin genes constituting the extracellular matrix (ECM) is inhibited when irradiated with UV. Therefore, it was confirmed whether the photoaging phenomenon of the cells was inhibited by confirming whether the expression levels of collagen, fibronectin, and elastin genes were restored and increased when treated with the peptide of the present invention.
(§2) First, NIH3T3 cells were seeded in a 6-well plate at a cell density of 5×10^5 cell/well, and then the cells were cultured in DMEM medium containing 10% fetal bovine serum (FBS) for 24 hours. The cultured cells were washed once with serum free DMEM medium, and the peptide of the present invention was mixed in 1 mL of the serum free DMEM medium at each of concentrations of 10, 50, and 100 μM, and dispensed into the cells. A positive control (PC) was treated with 50 μM of Quercetin instead of the above peptide.
(§3) The cells were cultured in a CO2 incubator at 37° C. for 1 hour. […] The amount of RNA isolated was quantified, 1,000 ng of RNA per tube was added, and reverse transcription into cDNA was performed using a kit (enzynomics, Cat. No.: RT200, Korea), and RT-PCR was performed using a PCR kit (enzynomics, Cat. No.: P581T, Korea). […]

[1] = test system: apoptotic-inducing factors (Cleaved PARP-1, Bax, Cleaved Caspase-3); experiment: Western blot of apoptotic-inducing factors increased by UV irradiation in NIH3T3 fibroblasts; type: cell-based, mouse; settings: peptide 10, 50, 100 μM before 6 J/cm^2 UVA, 48 hours culture, FIGS. 3A to 3D
Method: Expression of the apoptotic-inducing factors increases when irradiated with UV. Therefore, it was confirmed whether the photoaging phenomenon of the cells was inhibited and the damaged cells were regenerated by confirming whether the increased expression levels of the apoptotic-inducing factors such as cleaved PARP-1, cleaved Caspase-3, and […] decreased again when treated with the peptide of the present invention.
as §2, with “2.5 mM” for “50 μM”, “N-Acetylcysteine (NaC)” for “Quercetin”
(§4) The cells were cultured in a CO2 incubator at 37° C. for 1 hour, the medium of the cultured cells was transferred to a tube, 1 mL of PBS was added, and then irradiation was performed with 6 J/cm^2 of UVA using a UV irradiator (VILBER LOURMAT, Cat No.: 3102-BSU, France). After removing PBS, 900 μL of the medium transferred to the tube was added again, and culture was performed in a CO2 incubator at 37° C. for 48 hours. […]

elastin = experiment: RT-PCR of elastin mRNA decreased by UV irradiation in fibroblasts; type: cell-based, mouse; settings: NIH3T3 cells; peptide 10, 50, 100 μM before 6 J/cm^2 UVA; 6 hours culture; FIGS. 2A, 2D
Method: as §1, §2, §3

[2] = test system: NIH3T3 cells (mouse fibroblast cell line); experiment: Intracellular reactive oxygen species (ROS) level after UVA irradiation, DCFH-DA / FACS; type: cell-based; settings: peptide 10, 50, 100 μM for 1 hour before 8 J/cm^2 UVA, 24 hours culture, FIG. 1
Method: The reactive oxygen species level increases when UV is irradiated. Therefore, it was confirmed whether the reactive oxygen species level decreased again and the aging phenomenon caused by oxidative stress in cells was inhibited when treated with the peptide of the present invention.
(§5) First, NIH3T3 cells (mouse fibroblast cell line) were seeded in a 6-well plate at a cell density of 5×10^5 cell/well, and then the cells were cultured in DMEM medium containing 10% fetal bovine serum (FBS) for 24 hours. The cultured cells were washed once with serum free DMEM medium, and the peptide of the present invention was mixed in 1 mL of the serum free DMEM medium at each of concentrations of 10, 50, and 100 μM, and then dispensed into the cells. A positive control (PC) was treated with 7.5 mM of N-Acetylcysteine (NaC) instead of the above peptide.
The cells were cultured in a CO2 incubator at 37° C. for 1 hour. The medium of the cultured cells was transferred to a tube, 1 ml of PBS was added, and irradiation was performed with 8 J/cm^2 of UVA using a UV irradiator (VILBER LOURMAT, Cat No.: 3102-BSU, France). After removing PBS, 900 μL of the medium transferred to the tube was treated again, and culture was performed in a CO2 incubator at 37° C. for 24 hours. […] After centrifugation, the cells were washed with PBS, and a fluorescence value was measured through FACS.

MMP-1 [3] = experiment: Western blot of MMP-1 increased by UV irradiation in fibroblasts; type: cell-based, mouse; settings: NIH3T3 cells; peptide 10, 50, 100 μM before 6 J/cm^2 UVA; 48 hours culture; FIGS. 4A, 4B
Method: (§6) The expression of MMP-1 and MMP-2 encoding proteins related to collagen degradation is increased by ultraviolet irradiation. Therefore, it was confirmed whether the synthesis of the MMP-1 and MMP-2 proteins was inhibited again and the cell aging phenomenon was inhibited when treated with the peptide of the present invention.
as §5, with “NIH3T3 cells were seeded” for “NIH3T3 cells (mouse fibroblast cell line) were seeded”, “μM, and dispensed into” for “μM, and then dispensed into”, “treated with 2.5 mM of” for “treated with 7.5 mM of”
as §4, with “hour. The” for “hour, the”, “ml” for “mL”, “and” for “and then”, “added,” for “added again,”

collagen (Col1a1) = experiment: RT-PCR of collagen (Col1a1) mRNA decreased by UV irradiation in fibroblasts; type: cell-based, mouse; settings: NIH3T3 cells; peptide 10, 50, 100 μM before 6 J/cm^2 UVA; 6 hours culture; FIGS. 2A, 2B
Method: as §1, §2, §3

MMP-1 [4] = experiment: Western blot of MMP-1 increased by heat treatment in fibroblasts; type: cell-based, mouse; settings: NIH3T3 cells; peptide 10, 50, 100 μM for 24 hours before 44° C. for 40 minutes; 8 hours culture; FIGS. 5A, 5B
Method: The expression of MMP-1 encoding proteins related to collagen degradation increases by heat treatment. Therefore, it was confirmed whether the synthesis of the MMP-1 protein was inhibited again and the cell aging phenomenon was inhibited when treated with the peptide of the present invention.
as §5, with “NIH3T3 cells were seeded” for “NIH3T3 cells (mouse fibroblast cell line) were seeded”, “μM, and dispensed into” for “μM, and then dispensed into”, “treated with 2.5 mM of” for “treated with 7.5 mM of”, “N-Acetylcysteine (NaC) or 2 mM of Glutathione (GSH) instead of” for “N-Acetylcysteine (NaC) instead of”
The cells were cultured in a CO2 incubator at 37° C. for 24 hours. A lid and a lower plate of the 6-well plate were sealed with a paraffin film for heat treatment, the lower plate was immersed in a water bath at 44° C., and culture was performed for 40 minutes. After removing the medium, 1 mL of the serum free DMEM medium was added, and culture was performed in a CO2 incubator at 37° C. for 8 hours. Thereafter, the cells were washed twice with PBS, and then a cell lysis buffer was added to obtain a lysate. […]

MMP-2 = experiment: Gelatin zymography of MMP-2 in culture medium after UV irradiation of fibroblasts; type: cell-based, mouse; settings: NIH3T3 cells, peptide 10, 50, 100 μM before 6 J/cm^2 UVA, 48 hours culture, FIGS. 4A, 4C
Method: as §6
as §5, with “NIH3T3 cells were seeded” for “NIH3T3 cells (mouse fibroblast cell line) were seeded”, “μM, and dispensed into” for “μM, and then dispensed into”, “treated with 2.5 mM of” for “treated with 7.5 mM of”
as §4, with “hour. The” for “hour, the”, “ml” for “mL”, “and” for “and then”, “added,” for “added again,”

LKKNGSCKRGPRTHYGQK [peptide of the present invention]
mRNA expression of fibronectin decreased by UV irradiation (fibronectin): increased
expression of the apoptotic-inducing factors increased in the cells damaged by UV irradiation [1]: decreased
mRNA expression of elastin decreased by UV irradiation (elastin): increased
intracellular reactive oxygen species level increased by ultraviolet irradiation [2]: decreased
expression and activity of MMP-1 increased by UV irradiation (MMP-1 [3]): inhibited
mRNA expression of collagen decreased by UV irradiation (collagen (Col1a1)): increased
amount of MMP-1 protein whose expression was increased by heat treatment (MMP-1 [4]): decreased
expression and activity of MMP-2 increased by UV irradiation (MMP-2): inhibited
